The source of these data is ChEMBL document CHEMBL5729293, “Inhibitors of KEAP1-Nrf2 protein-protein interaction” (2022).

This experiment in a line: Fluorescence Based Assay: The details of the KEAP1 KELCH ThermoFluor® Assay Construct are as follows: Kelch domain of human KEAP 1 (321-624 aa) was used in the assay. The protein was expressed in E. coli with 6His tag that was cleaved prior to receipt for use.ThermoFluor® experiments were carried out using instruments owned by Janssen Research and Discovery, L.L.C. through its acquisition of 3-Dimensional Pharmaceuticals, Inc. 1,8-ANS (Invitrogen) was used as a fluorescent dye. Protein (KEAP Kelch) and compound solutions were dispensed into black 384-well polypropylene PCR microplates (Abgene) and overlayed with silicone oil (1 μL, Fluka, type DC 200) to prevent evaporation.Reference wells contained KEAP Kelch without compounds, and the assay conditions were as follows: 1.1 μM (0.037mg/mL) KEAP Kelch, 80 μM 1,8-ANS, 25 mM PIPES, pH 7.0, 100 mM NaCl, 0.002% Tween-20.

Some results are limits rather than exact numbers.

For the compound `Cc1ccc(C(c2ccn3c(C(F)(F)F)nnc3c2C)C(C)(C)C(=O)O)cc1CN1CC2(CCOCC2)Oc2nc(OCCCO)ccc2S1(=O)=O` (stereo not given), the Kd was under 1 nM.

`Cc1ccc([C@H](CC(=O)O)c2ccn3c(C(F)F)nnc3c2C)cc1CN1C[C@@H]2COCCN2c2ncccc2S1(=O)=O`: the Kd was under 1 nM.

For the compound `Cc1ccc([C@H](CC(=O)O)c2ccn3c(C)nnc3c2)cc1CN1C[C@H]2CCCN2c2ccccc2S1(=O)=O`, the Kd is under 1 nM.

`CC[C@@H]1CN(Cc2nc([C@@H](CC(=O)O)c3ccc4c(nnn4C4CC4)c3C)ccc2C)S(=O)(=O)c2cccnc2O1` displayed a Kd of under 1 nM.

`Cc1cnc2c(c1)S(=O)(=O)N(Cc1cc([C@@H](c3ccc4c(nnn4C4CC4)c3C)C(C)(C)C(=O)O)cnc1C)CC1(CC1)O2` had a Kd of under 1 nM.

`Cc1ccc([C@@H](c2ccn3c(C(F)(F)F)nnc3c2C)C(C)(C)C(=O)O)cc1CN1CC2(CCOCC2)Oc2nc(O[C@H](C)CN3CCCCC3)c(C)cc2S1(=O)=O` displayed a Kd of under 1 nM.

For `Cc1ccc([C@H](c2ccn3c(C(F)F)nnc3c2C)C(C)(C)C(=O)O)nc1CN1CC2(CC2)Oc2nc(OCCN3CCCCC3)c(C)cc2S1(=O)=O`, the Kd is under 1 nM.

`Cc1ccc([C@H](CC(=O)O)c2ccn3c(C(F)(F)F)nnc3c2C)cc1CN1C[C@@H]2CCN2c2ncccc2S1(=O)=O` came in with a Kd of under 1 nM.

For the compound `Cc1ccc([C@@H](c2ccn3c(C(F)(F)F)nnc3c2C)C(C)(C)C(=O)O)nc1CN1CC2(CCOCC2)Oc2ncccc2S1(=O)=O`, the Kd was under 1 nM.

Compound `Cc1ccc([C@@H](CC(=O)O)c2ccn3c(C(F)F)nnc3c2C)cc1CN1CC2(CCOCC2)Oc2ccc(F)cc2S1(=O)=O` returned an equilibrium dissociation constant (Kd) of under 1 nM.

`Cc1ccc(C(CC(=O)O)c2ccn3c(C(F)F)nnc3c2C)cc1CN1CC2CCCCN2c2ncc(C#N)cc2S1(=O)=O` (stereo not given) yielded a dissociation constant Kd of under 1 nM.

`Cc1cnc2c(c1)S(=O)(=O)N(Cc1cc([C@H](c3ccn4c(C(F)(F)F)nnc4c3)C(C)(C)C(=O)O)ccc1C)CC1(CC1)O2` showed a Kd of under 1 nM.

In the case of `Cc1ccc([C@@H](c2ccn3c(C(F)F)nnc3c2C)C(C)(C)C(=O)O)nc1CN1CC2(CCOCC2)Oc2nc(OCCN3CCCC3)c(C)cc2S1(=O)=O`, the Kd was under 1 nM.

As to `Cc1cc2cc([C@H](CC(=O)O)c3ccc(C)c(CN4C[C@H]5CCCN5c5ncccc5S4(=O)=O)c3)n(C)c2nn1`, the Kd was under 1 nM.

As to `Cc1ccc([C@@H](CC(=O)O)c2ccn3c(C(F)F)nnc3c2C)cc1CN1CC2(CC2)Oc2ncc(Cl)cc2S1(=O)=O`, the dissociation constant Kd is under 1 nM.

Regarding `Cc1ccc([C@H](CC(=O)O)c2ccn3c(C(F)(F)F)nnc3c2C)cc1CN1CC2(COC2)Oc2ncccc2S1(=O)=O`, the Kd was under 1 nM.

`Cc1ccc(C(CC(=O)O)c2ccn3c(C(F)F)nnc3c2C)cc1CN1C[C@@H]2CCCN2c2ncc(C#N)cc2S1(=O)=O` (stereo not given in full) had a Kd of under 1 nM.

`Cc1ccc([C@H](CC(=O)O)c2ccn3c(C(F)F)nnc3c2C)cc1CN1CC2(COC2)Oc2ccccc2S1(=O)=O`: the Kd is under 1 nM.

Take `Cc1ccc([C@H](CC(=O)O)c2ccn3c(C(F)(F)F)nnc3c2C)cc1CN1C[C@H]2CCCCN2c2ccccc2S1(=O)=O`: the Kd was under 1 nM.

The compound `Cc1ccc(C(CC(=O)O)c2ccn3c(C(F)F)nnc3c2C)cc1CN1C[C@H]2CCCN2c2ncccc2S1(=O)=O` (stereo not given in full) displayed a Kd of under 1 nM.

`Cc1ccc([C@@H](c2ccc3c(nnn3CC3CC3)c2C)C(C)(C)C(=O)O)nc1CN1CC2(CCOCC2)Oc2nc(OCCN3CCOCC3)ccc2S1(=O)=O` gave a Kd of under 1 nM.

For the compound `Cc1ccc([C@H](CC(=O)O)c2ccn3c(C(F)(F)F)nnc3c2C)cc1CN1C[C@H]2COCCN2c2ncc(C#N)cc2S1(=O)=O`, the Kd was under 1 nM.

`Cc1ccc([C@H](c2ccn3c(C(F)F)nnc3c2C)C(C)(C)C(=O)O)nc1CN1CC2(CC2)Oc2nc(OCCN3CCCC3)c(C)cc2S1(=O)=O`: the Kd is under 1 nM.

Turning to `Cc1ccc(C(c2ccc3c(nnn3CC3CC3)c2C)C(C)(C)C(=O)O)nc1CN1CC2(CCOCC2)Oc2nc(OCCN3CCOCC3)ccc2S1(=O)=O` (stereo not given), the dissociation constant Kd was under 1 nM.

Compound `Cc1cc2cc(C(CC(=O)O)c3ccc(C)c(CN4C[C@H]5CCCCN5c5ncccc5S4(=O)=O)c3)n(C)c2nn1` (stereo not given in full) showed a Kd of under 1 nM.

In turn, `Cc1ccc([C@H](c2ccn3c(C(F)(F)F)nnc3c2C)C(C)(C)C(=O)O)cc1CN1CC2(CCOCC2)Oc2nc(OCCCOCCCO)ccc2S1(=O)=O` registered a Kd of under 1 nM.

As for `Cc1ccc(C(CC(=O)O)c2ccc3c(nnn3CC3CC3)c2C)cc1CN1C[C@H]2CCCCN2c2ncccc2S1(=O)=O` (stereo not given in full), the dissociation constant Kd was under 1 nM.

In turn, `Cc1ccc([C@@H](CC(=O)O)c2ccc3c(nnn3CC3CC3)c2C(F)F)cc1CN1C[C@H]2CCCCN2c2ncccc2S1(=O)=O` (single isomer, unassigned) came in with a Kd of under 1 nM.

Consider `Cc1ccc([C@@H](c2ccn3c(C(F)(F)F)nnc3c2C)C(C)(C)C(=O)O)cc1CN1C[C@H]2CCCCN2c2ncc(C#N)cc2S1(=O)=O`, for which the Kd is under 1 nM.

Compound `Cc1ccc(C(CC(=O)O)c2cc(OC(F)F)c3c(c2)nnn3C)cc1CN1C[C@H]2CCCN2c2ncccc2S1(=O)=O` (stereo not given in full) showed a Kd of under 1 nM.

On to `Cc1ccc([C@H](CC(=O)O)c2ccc3c(nnn3C3CC3)c2C)cc1CN1C[C@@H]2CCCCN2c2ncccc2S1(=O)=O`, for which the Kd was under 1 nM.

`Cc1ccc([C@H](CC(=O)O)c2ccn3c(C(F)F)nnc3c2C)cc1CN1C[C@H]2CCCN2c2ncccc2S1(=O)=O` registered a dissociation constant (Kd) of under 1 nM.

For the compound `Cc1ncc([C@@H](c2ccc3c(nnn3C3CC3)c2C)C(C)(C)C(=O)O)cc1CN1CC2(COC2)Oc2ncccc2S1(=O)=O`, the Kd is under 1 nM.

`Cc1cnc2c(c1)S(=O)(=O)N(Cc1cc([C@H](CC(=O)O)c3ccn4c(C(F)(F)F)nnc4c3C)ccc1C)CC1(CCOCC1)O2`: the Kd was under 1 nM.

`Cc1c([C@@H](CC(=O)O)c2ccc(Cl)c(CN3CC4CCCCN4c4ncc(F)cc4S3(=O)=O)c2)ccn2c(C(F)(F)F)nnc12` (stereo not given in full) yielded a Kd of under 1 nM.

Take `Cc1ccc([C@@H](c2ccn3c(C(F)(F)F)nnc3c2C)C(C)(C)C(=O)O)cc1CN1CC2(CC2)Oc2nc(OCCN3CCOCC3)c(C)cc2S1(=O)=O`: the Kd was under 1 nM.

In the case of `Cc1c(C(CC(=O)O)c2ccc(Cl)c(CN3CC4CCCCN4c4ncccc4S3(=O)=O)c2)ccn2c(C(F)(F)F)nnc12` (stereo not given), the Kd was under 1 nM.

The compound `Cc1ccc([C@@H](c2ccn3c(C(F)(F)F)nnc3c2C)C(C)(C)C(=O)O)cc1CN1CC2(CCOCC2)Oc2nc(NCCCO)ccc2S1(=O)=O` yielded a Kd of under 1 nM.

`Cc1ccc([C@H](c2ccn3c(C(F)(F)F)nnc3c2C)C(C)(C)C(=O)O)cc1CN1C[C@@H]2CCCCN2c2ncc(C#N)cc2S1(=O)=O` had an equilibrium dissociation constant (Kd) of under 1 nM.

Compound `Cc1cnc([C@@H](c2ccn3c(C(F)F)nnc3c2C)C(C)(C)C(=O)O)cc1CN1CC2(CC2)Oc2nc(OCCN3CCCC3)c(C)cc2S1(=O)=O` returned a Kd of under 1 nM.

`CCn1nnc2c(C)c([C@@H](CC(=O)O)c3ccc(C)c(CN4CC5(CC5)Oc5ncccc5S4(=O)=O)n3)ccc21` displayed a Kd of under 1 nM.

As to `Cc1ccc([C@H](c2ccn3c(C(F)(F)F)nnc3c2C)C(C)(C)C(=O)O)cc1CN1CC2(CCOCC2)Oc2nc(OCC(=O)NCCO)ccc2S1(=O)=O`, the Kd was under 1 nM.

Compound `Cc1cnc2c(c1)S(=O)(=O)N(Cc1cc(C(CC(=O)O)c3ccn4c(C(F)F)nnc4c3C)ccc1C)CC1(CC1)O2` (stereo not given) yielded a Kd of under 1 nM.

The compound `CCn1nnc2c(C)c([C@@H](CC(=O)O)c3ccc(C)c(CN4C[C@H]5CCCCN5c5ncccc5S4(=O)=O)n3)ccc21` showed a Kd of under 1 nM.

On to `Cc1ccc([C@H](CC(=O)O)c2ccn3c(C(F)(F)F)nnc3c2C)cc1CN1CC2CCCCN2c2ncc(C#N)cc2S1(=O)=O` (stereo not given in full), for which the dissociation constant (Kd) is under 1 nM.

In the case of `Cc1cnc2c(c1)S(=O)(=O)N(Cc1cc([C@@H](c3ccc4c(nnn4C4CC4)c3C)C(C)(C)C(=O)O)ccc1C)CC1(CCNCC1)O2`, the Kd was under 1 nM.

The compound `CCn1nnc2c(C)c([C@@H](CC(=O)O)c3ccc(C)c(CN4C[C@H]5CCCN5c5ncccc5S4(=O)=O)n3)ccc21` gave a Kd of under 1 nM.

`Cc1ccc(C(CC(=O)O)c2ccc3c(nnn3C3CC3)c2C)cc1CN1C[C@]2(C)CCCN2c2ncccc2S1(=O)=O` (stereo not given in full) yielded a Kd of under 1 nM.

The compound `Cc1cnc2c(c1)S(=O)(=O)N(Cc1cc([C@@H](c3ccn4c(C(F)F)nnc4c3C)C(C)(C)C(=O)O)ccc1C)CC1(CCOCC1)O2` showed a Kd of under 1 nM.

The compound `Cc1ccc([C@H](CC(=O)O)c2ccn3c(C(F)F)nnc3c2C)cc1CN1C[C@@H]2CCCN2c2ncc(C#N)cc2S1(=O)=O` gave a Kd of under 1 nM.

Compound `Cc1ccc([C@H](CC(=O)O)c2ccn3c(C(F)(F)F)nnc3c2C)nc1CN1C[C@@H]2CCCCN2c2ncc(Cl)cc2S1(=O)=O` gave a Kd of under 1 nM.

The compound `Cc1ccc(C(CC(=O)O)c2ccn3c(C(F)(F)F)nnc3c2C)cc1CN1CC2CCC(F)(F)CN2c2ncccc2S1(=O)=O` (stereo not given) returned a Kd of under 1 nM.

`Cc1cnc2c(c1)S(=O)(=O)N(Cc1nc(C(CC(=O)O)c3ccn4c(C(F)(F)F)nnc4c3C)ccc1C)C[C@@H]1CCCCN21` (stereo not given in full): the Kd is under 1 nM.

With `Cc1cnc2c(c1)S(=O)(=O)N(Cc1cc(C(c3ccn4c(C5CC5)nnc4c3C)C(C)(C)C(=O)O)ccc1C)CC1(CC1)O2` (stereo not given), the Kd was under 1 nM.

Compound `Cc1ccc([C@H](c2ccn3c(C(F)(F)F)nnc3c2C)C(C)(C)C(=O)O)cc1CN1CC2(CCOCC2)Oc2nc(NCCN3CCNCC3)c(C)cc2S1(=O)=O` gave a Kd of under 1 nM.

Take `CC[C@@H]1CN(Cc2nc(C(CC(=O)O)c3ccc4c(nnn4C4CC4)c3C)ccc2C)S(=O)(=O)c2cccnc2O1` (stereo not given in full): the Kd was under 1 nM.

Take `CCn1nnc2c(C)c([C@H](c3ccc(C)c(CN4CC5(CCOCC5)Oc5ncc(C)cc5S4(=O)=O)n3)C(C)(C)C(=O)O)ccc21`: the equilibrium dissociation constant (Kd) was under 1 nM.

The compound `Cc1ccc([C@@H](CC(=O)O)c2ccn3c(C(F)(F)F)nnc3c2C)nc1CN1C[C@H]2CCCCN2c2ncc(C#N)cc2S1(=O)=O` displayed a Kd of under 1 nM.

`Cc1cnc2c(c1)S(=O)(=O)N(Cc1cc([C@@H](c3ccn4c(C(F)(F)F)nnc4c3C)C(C)(C)C(=O)O)ccc1C)C[C@]1(CCOC1)O2`: the Kd is under 1 nM.

Turning to `CCn1nnc2c(C)c(C(CC(=O)O)c3ccc(C)c(CN4C[C@H]5CCCCN5c5ncccc5S4(=O)=O)n3)ccc21` (stereo not given in full), the Kd was under 1 nM.
